Experimental data reported in PMC10800708, “Efficacies and ADME properties of redox active methylene blue and phenoxazine analogues for use in new antimalarial triple drug combinations with amino-artemisinins” (Frontiers in Pharmacology, 2024).

What was measured:
[1] = set-up: method as in Gibhard et al., 2021; conditions: murine model, ref Gibhard et al., 2021; cited from earlier work
gametocytes = tested on: gametocytes; set-up: method as in Coertzen et al., 2018; conditions: ref Coertzen et al., 2018; cited from earlier work
[2] = tested on: asexual blood stage of P. falciparum; set-up: method as in Coertzen et al., 2018; conditions: ref Coertzen et al., 2018; cited from earlier work
[3] = human, in vivo; cited from earlier work
[4] = set-up: method as in Agency, 2009; conditions: ref Agency, 2009; cited from earlier work
[5] = tested on: Plasmodium falciparum DD2; experiment: Parasite lactate dehydrogenase (pLDH) assay over 72 h, CQ-resistant strain; type: cell-based; conditions: Plasmodium falciparum, DD2, 72 h, read-out: Plasmodium falciparum IC50 DD2
Experimental: (§1) The assay was performed in quadruplicate. The data were analyzed by nonlinear regression analysis using the GraphPad PRISM version 5.00 program to determine the IC50 of each compound.

[6] = tested on: Plasmodium falciparum NF54; experiment: Parasite lactate dehydrogenase (pLDH) assay over 72 h, CQ-sensitive strain; type: cell-based; conditions: NF54, 72 h, read-out: Plasmodium falciparum IC50 NF54
Experimental: as §1

C[C@H]1[C@H](N2CCSCC2)O[C@@H]2O[C@@]3(C)CC[C@H]4[C@H](C)CC[C@@H]1[C@@]24OO3 [artemiside]
Cmax relative to that after oral administration of artemisone [1]: 2.6 fold

CN(C)c1ccc2nc3ccc(=[N+](C)C)cc-3sc2c1 [MB, methylene blue]
Interaction with artemisone, gametocytocidal activity (gametocytes): synergistically enhanced | Interaction with artemisone against the asexual blood stage [2]: only an additive effect | Bioavailability [3]: 72.3± 23.9% | Mean terminal half-life [3]: 5.25 h | Protein bound [4]: 94%

CCN(CC)CCCC(C)Nc1ccnc2cc(Cl)ccc12 (centres unmarked) [CQ, chloroquine, reference compound]
IC50 [5]: 142 ± 16.8 nM | IC50 [6]: 9.9 ± 0.4 nM
